# Reference: PMC12867150, “A fungi-derived cyclic peptide enhances Th9-mediated antitumor immunity by targeting ZAP70 and SREBP1” (The Journal of Clinical Investigation, 2025)
# Values joined by “and” are separate entries in the source; they are usually repeats but may differ in a detail not shown here. Equal values may be shown once.
# Assays:
# Th1 cells = test: Th1 polarization, IFN-γ by flow cytometry (Figure 1F); assay type: cell-based, mouse
# Procedure: Naive CD4^+ T cells were isolated from the spleens of C57BL/6J or CD45.1^+ OT-II mice using the MojoSort Mouse CD4 Naive T Cell Isolation Kit (BioLegend, catalog 480040), following the manufacturer’s protocol. Purified cells were cultured in RPMI-1640 medium supplemented with 10% FBS, 1% penicillin-streptomycin, and 0.1% β-mercaptoethanol (Gibco, catalog 21985023).
# T cell polarization was initiated under plate-bound anti-CD3 (2 μg/mL, clone 17A2, BioXCell, catalog BE0002) and soluble anti-CD28 (1 μg/mL, clone 37.51, BioXCell, catalog BE0015-1) stimulation, with the addition of cytokines and neutralizing antibodies specific to each subset. For Th9 cells, these included IL-4 (10 ng/mL, Peprotech, catalog 400-04), TGF-β (1 ng/mL, EPOTO Biotech, catalog HF-2021), anti–IL-12 (5 μg/mL, clone C17.8, BioXCell, catalog BE0051), and anti–IFN-γ (10 μg/mL, clone XMG1.2, BioXCell, catalog BE0055); for Th1 cells, these included IL-12 (10 ng/mL, GenScript, catalog Z03211-50) and anti–IL-4 (5 μg/mL, clone 11B11, BioXCell, catalog BE0045); for Th2 cells, these included IL-4 (50 ng/mL), anti–IFN-γ (20 μg /mL), anti–IL-12 (5 μg/mL), Th17 cells: IL-6 (20 ng/mL, EPOTO Biotech, catalog MF-1006), TGF-β (1 ng/mL), IL-1β (10 ng/mL, Peprotech, catalog AF-211-11B), anti–IFN-γ (10 μg/mL), anti–IL-12 (5 μg/mL), and anti–IL-4 (5 μg/mL); and for Tregs, these included TGF-β (3 ng/mL). […]
# IL-6 = test: Serum IL-6 by ELISA after ACT (S1B); assay type: in vivo, mouse; conditions: for IL-6 of blood from mouse: Supplemental Figure 1B
# Procedure: Peripheral blood was collected from mouse tail veins at predefined time points in the tumor model. Samples were allowed to clot at 4°C for 1 hour and were then centrifuged at 600g for 25 minutes to obtain serum. Serum IL-6 levels were measured using an ELISA kit (Invitrogen; catalog 88-7064) according to the manufacturer’s instructions.
# Days after ACT Days after ACT
# Figure S1. EpA enhances immune responses. […]
# Serum IL-6 levels after ACT, measured by ELISA on days 5, 10, 15, and 20. (C–E) […]
# Statistical analysis was performed using two-way ANOVA with Tukey’s post hoc test (A), one-way ANOVA with Tukey’s post hoc test (B) or two-tailed unpaired Student’s t-test (D and G–M). ns, not significant. *p < 0.05, **p < 0.01, ****p < 0.0001.
# (also on this page, place not known: Mouse weight (g) CtrlEpA CtrlEpA CtrlEpA0 I CD45.1+ T cells (%) CtrlEpA CD4+ T cells (%) CtrlEpA CtrlEpA CtrlEpA FSC CD8 CD8 FSC FSC FSC BNumber of CD45.1+ T cells (×103 per mgĎ Number of CD4+ T cells (×104 per mgĎ DC (%)NK cells (%) NK cells (%) DC (%) Number of DC (×103 per mg) Number of NK cells (×105) Number of NK cells (×103 per mg) Number of DC (×105) FSC FSC FSC CD8 CtrlEpA CtrlEpA CtrlEpA CD8+ T cells (%) Number of CD8+ T cells (×104 per mgĎ nsns ns nsns ns 40 IL-6 (pg/ml))
substance,measurement,setting,value
anteiso-C15 Leu7 surfactin [EpA],IFN-γ expression under Th1 polarization,"Th1 cells; EpA 10 μM, individual replicates, n = 4",80 and 84.2 and 74.8 and 80.3
same,effect on Th1 polarization,Th1 cells; result in words,did not affect
same,IL-6 of blood from mouse,"IL-6; Day5, replicate 1",26.4444 pg/mL
same,IL-6 of blood from mouse,"IL-6; Day5, replicate 2",18 pg/mL
same,IL-6 of blood from mouse,"IL-6; Day5, replicate 3",22.6667 pg/mL
same,IL-6 of blood from mouse,"IL-6; Day5, replicate 4",28 pg/mL
same,IL-6 of blood from mouse,"IL-6; Day10, replicate 1",22.6667 pg/mL
same,IL-6 of blood from mouse,"IL-6; Day10, replicate 2",21.3333 pg/mL
same,IL-6 of blood from mouse,"IL-6; Day10, replicate 3",24.2222 pg/mL
same,IL-6 of blood from mouse,"IL-6; Day10, replicate 4",22 pg/mL
same,IL-6 of blood from mouse,"IL-6; Day15, replicate 1",19.5556 pg/mL
same,IL-6 of blood from mouse,"IL-6; Day15, replicate 2",16 pg/mL
same,IL-6 of blood from mouse,"IL-6; Day15, replicate 3",11.3333 pg/mL
same,IL-6 of blood from mouse,"IL-6; Day15, replicate 4",20 pg/mL
same,IL-6 of blood from mouse,"IL-6; Day20, replicate 1",21.7778 pg/mL
same,IL-6 of blood from mouse,"IL-6; Day20, replicate 2",14.8889 pg/mL
same,IL-6 of blood from mouse,"IL-6; Day20, replicate 3",14.4445 pg/mL
same,IL-6 of blood from mouse,"IL-6; Day20, replicate 4",26.8889 pg/mL
same,serum IL-6 levels,"IL-6; EpA-Th9 therapy vs control, result in words",No significant differences
